In PubChem BioAssay AID179 (DTP/NCI, 2004):
Several values for one entry are separate records, joined by “and”; a condition that tells them apart may be missing. Equal entries are not always repeated. Activity calls are given as the source filed them.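 The calls were made as follows: active = compounds giving half or more protection of infected cells from virus-caused growth loss, again on retest; inactive = the rest.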

System: CEM cells HIV-1 protection, formazan growth assay
Assay: NCI AIDS Antiviral Assay
Details: for IC50: measured here: growth of uninfected CEM cells
Procedure, shortened: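 Five concentrations of each compound were applied to infected and uninfected human CEM cells. Protection from HIV-1 was judged from growth measured with a soluble formazan assay.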

| Compound | EC50 | IC50 | outcome |
| --- | --- | --- | --- |
| CCOC(=O)C1Nc2ccccc2[C@H]2OCC[C@@H]12 (some centres not stated) | > 525 µM | > 525 µM |  |
| CN(C)CCNC(=O)c1nc([N+](=O)[O-])cn1C | > 200 µM | > 200 µM |  |
| CC1=NN(C(=O)c2ccccc2O)C(=O)C1N=Nc1ccccc1C(=O)O (configuration not stated) |  |  | inactive |
| N=c1c2ccccc2sc2nc3ccccc3n12 | > 52.5 µM | > 52.5 µM |  |
| N=c1nc(-c2ccccc2)nc2[nH]c3c4cccc5cccc(c3nc12)c54 | > 200 µM | 67.6 µM |  |
| NC(N)=NNC(=O)CCCCCCCC(=O)NN=C(N)N | 537 µM | 676 µM |  |
| O=C(Nc1ccc(Cl)cc1)C(=O)C(C(=O)c1ccccc1-c1ccccc1)C1OC(=O)c2ccccc21 (configuration not stated) | > 70.8 µM | 13.2 µM |  |
| COC(=O)C(=O)C(C(=O)C(=O)Nc1cc([N+](=O)[O-])ccc1[N+](=O)[O-])c1nc2ccc(C(=O)c3ccccc3)cc2[nH]c1=O (configuration not stated) | > 158 µM | 83.2 µM |  |
| Cc1cc(O)c(C(=O)CC2(O)C(=O)Nc3c(Cl)cc(Cl)cc32)c(=O)o1 (configuration not stated) | > 468 µM | > 468 µM |  |
| O=C(C(=O)n1ccc2ccccc21)c1c[nH]c2ccccc12 | > 200 µM | > 200 µM |  |
| N#CNC(N)=NCCO | > 692 µM | > 692 µM |  |
| CC(=O)C(=[N+]=[N-])C(=O)N(C)CCC#N | > 200 µM | > 200 µM |  |
| [Cl][Ni].[NH-]C(Cc1c[nH]cn1)C(=O)O (configuration not stated) | > 100 µM | > 100 µM |  |
| CCCNC(=O)Nc1c([N+](=O)[O-])cc(C(F)(F)F)cc1[N+](=O)[O-] |  |  | inactive |
| Nc1ccn(CCO)c(=O)n1 | > 1620 µM | > 1620 µM |  |
| Cc1nn(C(=O)c2ccccc2O)c2c1C(c1ccc(O)cc1O)SC(N)=N2 (configuration not stated) | > 2 µM | 0.331 µM |  |
| CCC1(COC(NC(=O)c2ccccc2)(C(F)(F)F)C(F)(F)F)COC1 | > 200 µM | 115 µM |  |
| O=c1n(-c2ccccc2)c(=O)n2n1C1/C=C\C=C/C2C2CCC21 (configuration not stated) | > 200 µM | > 200 µM |  |
| Cc1ccc(C2=Nc3c(N)nc(N)nc3NC(c3ccccc3)C2)cc1 (configuration not stated) | > 200 µM | 4.27 µM and 3.72 µM |  |
| O=[N+]([O-])c1cc(Br)cc2c1[nH]c1nc3ccc(C(F)(F)F)cc3nc12 | > 45.7 µM | 8.32 µM |  |
| COc1ccc(-c2ccccc2)c(N/N=C2\CCCNC2=O)c1 |  |  | inactive |

| Compound | EC50 | IC50 | outcome |
| --- | --- | --- | --- |
| CC(C)(C)C1=CC(=C(c2ccc(-c3c4nc(c(-c5ccc(C(=C6C=C(C(C)(C)C)C(=O)C(C(C)(C)C)=C6)c6cc(C(C)(C)C)c(O)c(C(C)(C)C)c6)cc5)c5ccc([nH]5)c(-c5ccc(C(=C6C=C(C(C)(C)C)C(=O)C(C(C)(C)C)=C6)c6cc(C(C)(C)C)c(O)c(C(C)(C)C)c6)cc5)c5nc(c(-c6ccc(C(=C7C=C(C(C)(C)C)C(=O)C(C(C)(C)C)=C7)c7cc(C(C)(C)C)c(O)c(C(C)(C)C)c7)cc6)c6ccc3[nH]6)C=C5)C=C4)cc2)c2cc(C(C)(C)C)c(O)c(C(C)(C)C)c2)C=C(C(C)(C)C)C1=O | > 100 µM | > 100 µM |  |
| S=c1[nH]nc(CNc2ccc(-c3n[nH]c(=S)n3-c3ccc(Cl)cc3)cc2)n1-c1ccc(Cl)cc1 | > 200 µM | 31.6 µM |  |
| O=C1C=CC(=O)c2c(O)c3c(c(O)c21)C[C@H](O)[C@H](O)[C@@H]3O | > 269 µM | 0.389 µM |  |
| CC1=CC(=O)C(=O)C2=C1OC1(C2)C(C)CCC2C3(C)CCC(O)C(C)(C)C3CCC21C (configuration not stated) | > 100 µM | 47.9 µM |  |
| N#CC(/C(=N/NC(N)=S)C(=O)Nc1cccc(Cl)c1)c1ccccc1 (configuration not stated) | > 19.5 µM | 10.5 µM |  |
| NC(Cc1ccc(N(CCCl)CCCl)cc1)C(=O)O (configuration not stated) | > 200 µM | 12 µM |  |
| CCCCCCCCCCCCC(Br)C(=O)OCC1OC(n2cc(C)c(=O)[nH]c2=O)CC1O (configuration not stated) | > 200 µM |  |  |
| O=C(/C=C/c1cccs1)c1ccc(Cl)s1 |  |  | inactive |
| Cc1cn(C2CC(C/C=[N+](\[O-])CC3OC(n4cc(C)c(=O)[nH]c4=O)CC3O[Si](C)(C)C(C)(C)C)C(CO[Si](C)(C)C(C)(C)C)O2)c(=O)[nH]c1=O (configuration not stated) | > 200 µM | 36.3 µM |  |
| CCOP(=S)(OCC)Oc1ccc(Sc2ccc(OP(=S)(OCC)OCC)cc2)cc1 | > 200 µM | 30.9 µM |  |
| CC(Cl)CC(=O)OCC1CCCN2CCCCC12 (configuration not stated) | > 200 µM | > 200 µM |  |
| CC(C)(C)[Si](C)(C)OCC1OC(n2ccc(=O)[nH]c2=O)C(O[Si](C)(C)C(C)(C)C)C1CC#N (configuration not stated) | > 200 µM | 11.7 µM | inactive |
| Cc1cc(NS(=O)(=O)c2ccc(Nc3c4ccccc4nc4ccccc34)cc2)no1 | > 200 µM | 2 µM |  |
| CC(=O)OC12c3ccccc3-c3ccccc3C1C1C(=O)OC(=O)C12 (configuration not stated) | > 282 µM | > 282 µM |  |
| N#C/C(C(=S)Nc1ccc(Cl)cc1)=C1/Nc2ccccc2O1 | > 200 µM | 37.2 µM |  |
| COc1ccc(Br)c(CCCCCCCC(=O)O)c1 | > 100 µM | > 100 µM |  |
| CCOC(=O)CN=c1nc(SC)sc2c(C(=O)OCC)nc(Sc3ccccc3)n12 | > 60.3 µM | 10.7 µM |  |
| OCCN1CCN(CCCN2c3cc(Cl)ccc3Sc3ccsc32)CC1 | > 316 µM | 15.5 µM |  |
| COc1cc(NCCCCCN=C(N)NC#N)c2ncccc2c1 | > 79.4 µM | 50.1 µM |  |
| O=C(O)c1cc(=O)[nH]c(O)c1N=Nc1ccc(/C=C/c2ccc(N=Nc3c(C(=O)O)cc(=O)[nH]c3O)cc2S(=O)(=O)O)c(S(=O)(=O)O)c1 | > 200 µM | 102 µM |  |
| N#Cc1cccc(Nc2ccccc2SSc2ccccc2Nc2cccc(C#N)c2)c1 | > 58.9 µM | 4.79 µM |  |

| Compound | EC50 | IC50 | outcome |
| --- | --- | --- | --- |
| COC(=O)CC1NC(=O)C1C(C)O[Si](C)(C)C(C)(C)C (configuration not stated) | > 603 µM | 288 µM |  |
| CCc1c(Cc2cc(C)cc(C)c2)n(COCCCCOC(=O)c2ccccc2)c(=O)[nH]c1=O | 0.00692 µM | 2 µM |  |
| CC1(C)COC(c2cccc3c2C(=O)c2cccc(Cl)c2-3)=N1 | > 83.2 µM | 79.4 µM |  |
| O=[N+]([O-])c1cc(Cl)ccc1S(=O)(=O)N1CCCc2cc(Cl)ccc21 | > 200 µM | 30.2 µM |  |
| COc1ccc2c(c1)c1c3c(ccc4ncn2c43)N(CCO)CCN=1 | > 100 µM | 0.178 µM |  |
| O=S(=O)(O)C1CC2NC3C4CCCC(S(=O)(=O)O)C4C(Nc4ccccc4)CC3N(c3ccccc3)C2CC1Nc1ccccc1 (configuration not stated) | 56.2 µM | > 100 µM |  |
| O=C1NC(O)c2cccc([N+](=O)[O-])c2O1 (configuration not stated) | > 200 µM | 61.7 µM |  |
| COCC(O)Cn1ccnc1[N+](=O)[O-] (configuration not stated) | > 1230 µM | > 1230 µM |  |
| NNC(=S)N1CCN(C(=S)NN)CC1 | > 200 µM | 15.1 µM |  |
| CC(C)(C)c1cc(C2COC(=O)COCC(=O)OCCOCCOCCO2)cc(C(C)(C)C)c1O (configuration not stated) | > 200 µM | 95.5 µM |  |
| C(=C(Sc1ccccc1)Sc1ccccc1)C(Sc1ccccc1)c1ccccc1 (configuration not stated) | > 200 µM | > 200 µM |  |
| COc1cc2c3c(c1)nnn3C(=O)CCS2 | > 200 µM | > 200 µM |  |
| O=C1C2CCN(CC2)C1Cn1cnc2c(Cl)ncnc21 (configuration not stated) |  |  | inactive |
| CC1=CC(=O)N2[C@H](OC[C@@H]2C(C)C)O1 | > 1260 µM | > 1260 µM |  |
| Cc1cc2c(c(S(=O)(=O)c3ccccc3[N+](=O)[O-])c1)NCCC2 | 1.55 µM | 21.4 µM |  |
| CC(=O)C1CC2(c3ccccc3)C(=O)c3ccccc3N2O1 (configuration not stated) | > 447 µM | 195 µM |  |
| Nc1ccc(Sc2c3ccccc3nc3ccccc23)cc1 | > 17.4 µM | 9.55 µM |  |
| O=C1OCCC1C(O)C1c2ccccc2-c2ccccc21 (configuration not stated) | > 339 µM | > 339 µM |  |
| CN1C(=O)C23SSC1(C)C(=O)N2c1ccccc1C3(C)C (configuration not stated) | > 200 µM | 7.94 µM |  |
| O=C1c2cscc2C(=O)c2cscc21 | > 2 µM | 0.339 µM |  |
| Cc1oc2ccccc2c(=O)c1CN1CCN(c2ccccn2)CC1 | > 214 µM | 129 µM |  |

| Compound | EC50 | IC50 | outcome |
| --- | --- | --- | --- |
| CCCCc1c2c(nc3c1CCCC3=O)CCCC2 | > 195 µM | 28.8 µM |  |
| Oc1[nH]c2ccccc2c1N=NC(=S)N1CCCCC1 | > 200 µM | 1.02 µM |  |
| N#Cc1nc(CCC(C(=O)O)N2C(=O)c3ccccc3C2=O)oc1N (configuration not stated) | > 100 µM | > 100 µM |  |
| N#CC1(C#N)C(c2ccc(C3C(C#N)(C#N)C3(C#N)C#N)cc2)C1(C#N)C#N |  |  | inactive |
| OCC1CC(F)C(n2cnc3c(I)ncnc32)O1 (configuration not stated) | > 138 µM | 63.1 µM |  |
| Cc1ccc(C(=O)Nc2ccc(CP(=O)(O)O)cc2CP(=O)(O)O)cc1NC(=O)c1cccc(NC(=O)Nc2cccc(C(=O)Nc3cc(C(=O)Nc4ccc(CP(=O)(O)O)cc4CP(=O)(O)O)ccc3C)c2)c1 | > 100 µM | > 100 µM |  |
| O=C1c2ccccc2C(=O)c2c(O)ccc(O)c21 | > 77.6 µM | > 77.6 µM |  |
| CCOc1ccc(NC(=O)CC2SC(=Nc3ccc(Cl)cc3)NC2=O)cc1 (configuration not stated) | > 617 µM | > 617 µM |  |
| CC(O)(/C=C/c1ccccc1)P(=O)(O)c1ccccc1 (configuration not stated) | > 200 µM | > 200 µM |  |
| COc1ccc(CC2c3cc(OC)c(OC)c(OC)c3CC[N+]2(C)C)cc1Oc1ccc(CC2c3cc4c(c(OC)c3CCN2C)OCO4)cc1 (configuration not stated) |  |  | inactive |
| CCCCCCC(=O)C(O)C(O)C(=O)CCCCCCCC(=O)O (configuration not stated) | > 200 µM | 97.7 µM |  |
| CC(=O)c1ccc2c3ccccc3c3cccc4sc1c2c43 | > 22.4 µM | > 22.4 µM |  |
| O=C(/C=C/c1ccco1)c1ccc(NCc2nc3ccccc3[nH]2)cc1 | > 20.9 µM | > 20.9 µM |  |
| COc1ccc2c(c1)[n+]([O-])c(S(=O)(=O)c1ccc(C)cc1)c(N)[n+]2[O-] |  |  | inactive |
| Cc1ccc(NC(=O)CC2Sc3ccccc3NC2=O)cc1C (configuration not stated) | > 6.17 µM | > 6.17 µM |  |
| O=c1ccn(C2CC(F)C(CO)S2)c(=O)[nH]1 (configuration not stated) | > 25.1 µM | > 25.1 µM |  |
| CCOC(=O)CC1C(O)C(=O)N(C)C1c1ccccc1 (configuration not stated) |  |  | inactive |
| COc1cccc(NC(=O)CC(=O)n2nc(-c3ccccc3)c(N=Nc3ccc(Cl)cc3)c2-c2ccccc2)c1 | > 200 µM | 11.5 µM |  |
| O=c1[nH]c2nc3ccccc3c(=O)n2/c1=C/c1ccc(Cl)cc1 | > 200 µM | 11.2 µM |  |
| Nc1c(Br)cc(-c2cc(Br)c(N)c(Br)c2)cc1Br | > 200 µM | 138 µM |  |
